Data: patent US9284298B2, “Pyrazolyl-pyrimidine derivatives as kinase inhibitors” (NERVIANO MEDICAL SCIENCES S.R.L., priority 2011, dated 2016)
Counter-ions that a name gives are not always drawn.

Tests used:
PIM1 = PIM1 (Homo sapiens (Human), UniProt P11309); assay: Biochemical assay for inhibitors of PIM1 kinase activity (trans-phosphorylation, Dowex); details: 200 μM ATP, Aktide substrate
Procedure: The short forms and abbreviations used herein have the following meaning: • Ci Curie • DMSO dimethylsulfoxide • KDa kiloDalton • microCi microCurie • mg milligram • microg microgram • ng nanogram • L liter • mL milliliter • μL microliter • M molar • mM millimolar • μM micromolar • nM nanomolar Biochemical Assay for Inhibitors of PIM1 Kinase Activity
The inhibitory activity of putative kinase inhibitors and the potency of selected compounds were determined using a trans-phosphorylation assay.
(§1) Specific peptide or protein substrates are trans-phosphorylated by their specific ser-thr or tyr kinase in the presence of ATP traced with ^33P-γ-ATP, and in the presence of their own optimal buffer and cofactors.
(§2) At the end of the phosphorylation reaction, more than 98% unlabeled ATP and radioactive ATP is captured by an excess of the ion exchange dowex resin; the resin then settles down to the bottom of the reaction plate by gravity.
(§3) Supernatant is subsequently withdrawn and transferred into a counting plate, then evaluated by β-counting.
The buffer for PIM1 assay was composed of HEPES 50 mM, at pH 7.5, with 10 mM MgCl2, 1 mM DTT, 3 μM NaVO3, and 0.2 mg/mL BSA. […]
Data are analyzed by an internally customized version of the “Assay Explorer” SW package, which provides sigmoidal fitting of the ten-dilution curves for IC50 determination in secondary assay/hit confirmation routines.

PIM2 = PIM2 (Homo sapiens (Human), UniProt Q9P1W9); assay: PIM2 kinase inhibition assay: Dowex technique; format: biochemical; details: 4 μM ATP, Aktide substrate
PIM2, sequence (Q9P1W9 whole entry): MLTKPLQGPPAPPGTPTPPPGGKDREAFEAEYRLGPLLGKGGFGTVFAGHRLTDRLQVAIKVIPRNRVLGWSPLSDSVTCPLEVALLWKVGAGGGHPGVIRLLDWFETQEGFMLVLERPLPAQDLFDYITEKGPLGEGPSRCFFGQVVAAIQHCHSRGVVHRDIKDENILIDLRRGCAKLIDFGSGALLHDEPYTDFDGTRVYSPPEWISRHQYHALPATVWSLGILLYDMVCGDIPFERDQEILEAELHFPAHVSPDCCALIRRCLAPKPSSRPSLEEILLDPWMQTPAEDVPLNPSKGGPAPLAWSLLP
Procedure: Method for PIM2 Kinase Inhibition Assay: Dowex Technique
The buffer for PIM2 assay was composed of HEPES 50 mM, at pH 7.5, with 1 mM MgCl2, 1 mM DTT, 3 μM Na3VO4, and 0.2 mg/mL BSA.
Full-length human PIM2 was expressed and purified as described in Fedorov O, et al., PNAS 2007 104, 51, 20523-28.
Enzyme concentration=1.5 nM
Aktide substrate (Chemical Abstract Service Registry Number 324029-01-8)=5 μM
See above: same procedure as described for PIM1.

MPS1 = MPS1 (Homo sapiens (Human), UniProt P33981); assay: Biochemical assay for inhibitors of MPS1 kinase activity (trans-phosphorylation, Dowex); details: 15 μM ATP, P38-tide substrate
MPS1, sequence (P33981 2-857): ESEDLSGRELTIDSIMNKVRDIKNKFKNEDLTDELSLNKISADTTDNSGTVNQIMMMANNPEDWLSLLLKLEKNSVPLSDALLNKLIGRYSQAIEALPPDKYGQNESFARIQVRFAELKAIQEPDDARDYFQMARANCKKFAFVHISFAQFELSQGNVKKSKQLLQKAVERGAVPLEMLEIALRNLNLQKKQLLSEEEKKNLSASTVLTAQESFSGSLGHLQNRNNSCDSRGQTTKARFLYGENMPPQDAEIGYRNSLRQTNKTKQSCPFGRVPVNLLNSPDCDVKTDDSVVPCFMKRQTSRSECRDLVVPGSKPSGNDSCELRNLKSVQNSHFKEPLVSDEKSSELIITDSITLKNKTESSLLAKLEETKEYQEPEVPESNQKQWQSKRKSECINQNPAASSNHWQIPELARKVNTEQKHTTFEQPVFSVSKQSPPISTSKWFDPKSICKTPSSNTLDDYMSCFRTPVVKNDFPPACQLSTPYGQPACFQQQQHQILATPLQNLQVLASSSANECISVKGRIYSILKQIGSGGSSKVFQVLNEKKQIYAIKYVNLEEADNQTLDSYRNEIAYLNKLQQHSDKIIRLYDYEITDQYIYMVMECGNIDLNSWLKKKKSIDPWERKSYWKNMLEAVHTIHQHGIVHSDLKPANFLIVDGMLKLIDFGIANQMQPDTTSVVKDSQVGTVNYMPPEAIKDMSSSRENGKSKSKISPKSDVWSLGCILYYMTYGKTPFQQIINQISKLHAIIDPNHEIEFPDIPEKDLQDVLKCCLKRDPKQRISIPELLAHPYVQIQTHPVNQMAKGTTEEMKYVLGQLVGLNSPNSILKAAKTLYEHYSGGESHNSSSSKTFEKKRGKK
Source text: Cloning, Expression and Purification of Recombinant MPS1 Full Length Protein.
MPS1 full length (corresponding to residues 2-857 of the full length sequence, see Swiss-Prot accession number P33981) was PCR amplified from the full-length human MPS1 gene present in house as clone pGEX4t_MPS1.
Baculoviruses were generated by cotransfecting Sf9 insect cells with the expression vector and the viral DNA using the BaculoGold® transfection kit (Pharmingen). Viral supernatant was recovered after 5 days and subjected to 3 rounds of amplification to increase viral titer. Recombinant protein was produced by infecting High5 insect cells. After 72 h of infection at 21° C., cells were recovered, pelletted and freezed at −80° C. For purification of recombinant protein, pellet was thawed, resuspended in lysis buffer (PBS, NaCl 150 mM, Glycerol 10%, CHAPS 0.1%, DTT 20 mM, protease and phosphatase inhibitors) and lysed by Gaulin. Lysate was cleared by centrifugation and loaded on a GST affinity column. After extensive wash, recombinant protein was cleaved by a specific protease and eluted by incubation.
To get a fully activated enzyme, the protein was then subjected to auto-phosphorylation in presence of ATP 1 mM at 25° C. for 2 h in kinase buffer (Hepes pH 7.5 50 mM, MgCl2 2.5 mM, MnCl2 1 mM, DTT 1 mM, phosphatase inhibitors); ATP was then removed with a desalting column.
Biochemical Assay for Inhibitors of MPS1 Kinase Activity The inhibitory activity of putative kinase inhibitors and the potency of selected compounds were determined using a trans-phosphorylation assay.
as §1, §2, §3
The buffer for MPS1 assay was composed of HEPES 50 mM, at pH 7.5, with 2.5 mM MgCl2, 1 mM MnCl2, 1 mM DTT, 3 μM Na3VO4, 2 mM β-glycerophosphate and 0.2 mg/mL BSA.
The assay was run with a final concentration MPS1 of 5 nM, in the presence of 15 μM ATP and 1.5 nM ^33P-γ-ATP; the substrate was P38-tide, used at 200 μM.
Test compounds are received as a 1 mM solution in 100% DMSO, distributed into 96 or 384 well plates: • a) for percent inhibition studies (HTS), individual dilution plates at 1 mM are diluted at a 3× concentration (30 μM) in ddH2O (3% DMSO=final concentration) using a Beckman NX automated pipetting platform. […]

PIM1, sequence (P11309 whole entry): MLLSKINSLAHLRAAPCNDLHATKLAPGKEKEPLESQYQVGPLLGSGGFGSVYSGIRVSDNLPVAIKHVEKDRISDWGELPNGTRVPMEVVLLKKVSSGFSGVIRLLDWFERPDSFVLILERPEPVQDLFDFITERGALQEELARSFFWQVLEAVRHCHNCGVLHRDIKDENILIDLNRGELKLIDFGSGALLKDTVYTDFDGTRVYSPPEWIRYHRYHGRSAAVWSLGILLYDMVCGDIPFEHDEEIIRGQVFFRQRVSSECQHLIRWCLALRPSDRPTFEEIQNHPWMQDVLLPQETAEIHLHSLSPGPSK

SMILES	IC50 (PIM1)	IC50 (PIM2)	IC50 (MPS1)
CSc1nccc(-c2cc(C(N)=O)nn2C2CCNCC2)n1 [Compound 21, 5-[2-(methylsulfanyl)pyrimidin-4-yl]-1-(piperidin-4-yl)-1H-pyrazole-3-carboxamide hydrochloride]	< 10000 nM	< 10000 nM	–
CCc1cccc(CC)c1NC(=O)c1cc(-c2ccnc(Nc3ccc(N4CCN(CCO)CC4)cc3OC)n2)[nH]n1 [Compound 13, N-(2,6-diethylphenyl)-5-[2-({4-[4-(2-hydroxyethyl)piperazin-1-yl]-2-methoxyphenyl}amino)pyrimidin-4-yl]-1H-pyrazole-3-carboxamide]	–	–	< 200 nM
CCc1cccc(CC)c1NC(=O)c1cc(-c2ccnc(Nc3ccc(N4CCN(C)CC4)cc3OC)n2)[nH]n1 [Compound 11, N-(2,6-diethylphenyl)-5-(2-{[2-methoxy-4-(4-methylpiperazin-1-yl)phenyl]amino}pyrimidin-4-yl)-1H-pyrazole-3-carboxamide]	–	–	< 200 nM
CCc1cccc(CC)c1NC(=O)c1cc(-c2ccnc(Nc3ccc(N4CCN(C)CC4)cc3OC)n2)n(C)n1 [Compound 3, N-(2,6-diethylphenyl)-5-(2-{[2-methoxy-4-(4-methylpiperazin-1-yl)phenyl]amino}pyrimidin-4-yl)-1-methyl-1H-pyrazole-3-carboxamide]	–	–	< 200 nM
CCc1cccc(CC)c1NC(=O)c1cc(-c2ccnc(Nc3ccc(N4CCN(CCO)CC4)cc3OC)n2)n(C)n1 [Compound 8, N-(2,6-diethylphenyl)-5-[2-({4-[4-(2-hydroxyethyl)piperazin-1-yl]-2-methoxyphenyl}amino)pyrimidin-4-yl]-1-methyl-1H-pyrazole-3-carboxamide]	–	–	< 200 nM
